Consider two compounds from patent US11360104B2, “Microbial-based biosensors” (TRUSTEES OF BOSTON UNIVERSITY, priority 2017, dated 2022).

Series [1] concerns TetR variant TetRd (TetR-6His, on QD2). The series can be described thus: FRET sensor 3 (QD2-TetRd + Cy5-DNA) titrated with aTc; aTc-induced TF-DNA unbinding. The series is classed as biochemical. From the text: (§1) The TetO cognate sequence comprises a 19 bp binding region. The 19 bp cognate sequence was flanked by 4-5 bp on each side to ensure binding, resulting in a 28 bp DNA oligo. One of the strands was labeled with the FRET acceptor Cy5 on both the 5′ and 3′ ends. A second 28 bp sequence with no affinity for TetR was similarly labeled to act as the negative control (Table 4).
(§2) Each sensor consists of Cy5-modified DNA acting as the FRET acceptor with either a fluorescent protein-transcription factor (FP-TF) fusion protein (expressed in E. coli) or quantum dot-transcription factor (QD-TF) conjugate as the donor.
(§3) A TF to DNA ratio was chosen for each sensor (1:3 for Sensor 1, 1:4.5 for Sensors 2 and 3) and kept constant for subsequent experiments testing sensor sensitivity to aTc.
(§4) To compare the three sensors, the sensor outputs were fit to a modified Hill equation written as:
(§5) [formula] where S0 is the intensity of the sensor signal with no analyte present, S1 is the intensity of the sensor signal at saturating analyte concentration, c is the analyte concentration, EC50 is the concentration at which there is 50% signal (aka the effective concentration, or EC50), and h is the Hill coefficient, which indicates cooperative binding. For visual comparison, the sensor outputs were normalized and plotted together (FIGS. 4A and B).
(§6) For Sensors 2 and 3, QDs and tetR-6His were mixed at a 1:4 ratio with a final QD concentration of 50 nM for self-assembly of the tetR-6His to the surface of the QDs^21.

Series [2] has as its system TetR variant TetRc, tdTomato fusion (tetR-tdTomato). The series can be described thus: FRET sensor 1 (tdTomato-TetRc + Cy5-DNA) titrated with aTc; aTc-induced TF-DNA unbinding. The series is classed as biochemical.
Text: as §1, §2, §3, §4, §5

Series [3] deals with TetR variant TetRc (TetR-6His, on QD1). The series can be described thus: FRET sensor 2 (QD1-TetRc + Cy5-DNA) titrated with aTc; aTc-induced TF-DNA unbinding. The series is classed as biochemical.
Text: as §1, §2, §3, §4, §5, §6

A further series deals with PinR (Nocardioides simplex (Pimelobacter simplex), UniProt A0A0A1DUF2). The series can be described thus: Cross-reactivity test with estradiol, 1:4:6 QD:TF:oligo sensor. The following applies: FIG. 44E. The series is classed as biochemical. The text has this: FIGS. 44A-44E show a schematic of the biosensor and emission plots. […] These two graphs show the difference between our sensor (blue) and negative control (orange). The lowest number of acceptor molecules with the largest difference between the signal and noise (difference between blue and orange) is the concentration ratio that we want to work with moving forward. The sensor tested moving forward comprised a 1:4:6 ratio of QD:TF:oligo-dye. Fda=Donor emission intensity in the presence of acceptor; Fd=Donor emission intensity in the absence of acceptor; Relative Donor Emission=Fda/Fd; FRET efficiency=1−Fda/Fd; Fa=Acceptor emission intensity in the presence of the donor; [QD]=50 nM; Oligo-Cy5:QD=0-48. […] When the TF is bound to the QD and the oligo is bound to the TF, which is more likely in the absence of the analyte (red line), the donor emission intensity is decreased and the acceptor emission intensity is increased (energy transfer from the QD to the dye on the oligo). The presence of the analyte decreases the affinity of the TF for the oligo, so binding is less likely; as a result, the donor emission intensity is increased and the acceptor emission intensity decreased. […] This same sensor was tested with estradiol (estrogen) as well to test for cross-reactivity. […]
Chain of PinR (A0A0A1DUF2 entry or part of it): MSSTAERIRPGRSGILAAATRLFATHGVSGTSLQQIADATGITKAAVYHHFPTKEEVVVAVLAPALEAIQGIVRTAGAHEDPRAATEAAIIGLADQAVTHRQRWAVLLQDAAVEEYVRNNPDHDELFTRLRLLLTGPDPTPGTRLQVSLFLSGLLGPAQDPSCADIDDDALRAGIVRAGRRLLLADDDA

The test system of series [4] is steroid responsive genome island (SRGI). Put plainly: Whole transcriptome RNA-Seq of steroid treated P. simplex. The series is classed as cell-based, Pimelobacter simplex. The settings on record: P. simplex exposed to steroid vs solvent control, Log2 fold change. The text has this:
(§7) In order to identify steroid binding Transcription Factors, a whole transcriptome RNA sequencing (RNA-Seq) screen was developed (FIG. 7). The growth of Pimelobacter simplex bacteria was profiled with respect to the starting inoculation density, solvent toxicity, and the addition of steroids (FIG. 16). […] P. simplex bacteria were screened against the steroid solvents ethanol (EtOH) and dimethyl sulfoxide (DMSO). […] Steroid growth curves were similarly performed using a starting OD of 0.005 and constant solvent dosing with titrations of steroids. […] P. simplex bacteria were grown in the presence of 700 μM testosterone, 21.88 μM progesterone, 87.50 μM estrone, 21.88 μM 17β-estradiol, 21.88 μM hydrocortisone, or 175.00 μM aldosterone concentrations were selected for comparison.
Using accession gene tags, genes were annotated for steroid relevant enzymes or transcription factors. […] Allosteric TF binding sequences are often palindromes and typically located near the start of its gene location in an intergenic space. With such a design, the allosteric TF can regulate itself or the open reading frame (ORF) near it in response to its effector molecule. […] Once identified, the TFs were cloned and recombinantly expressed for thorough characterization.
Cells were grown in 6 mL volumes of media at the OD, solvent, and steroid concentrations found from the growth curves in 14 mL polypropylene round-bottom tubes (Corning #352059) in technical duplicate. The same controls as in the steroid exposure growth curve were used for setting up RNA extraction samples. The cells were incubated at their corresponding temperature with continuous orbital shaking at 150 rpm until the end of lag-phase, mid-log phase, or stationary phase from the start of inoculation. Afterward, samples were removed and a 1:1 ratio of RNAprotect Bacteria Reagent (Qiagen #76506) was added followed by spinning down at 4° C. for 10 minutes at 4000 g. Supernatant was removed and the pellet re-suspended in 300 μL of RNAprotect and transferred into 2.0 mL Safe-Lock Tubes (Eppendorf #3101). The samples were then spun down once again at 4° C. for 10 minutes at 10000 g. Once the supernatant has been removed the samples were placed on ice and ready for RNA extraction. RNA extraction was done by Qiacube (Qiagen #9001292) set to the RNeasy Protect Bacteria Mini Kit protocol of bacterial cell pellet with enzymatic lysis. Tube A was prepared as described except with the addition of 150 mg/mL lysozyme (Sigma-Aldrich #L6876) and 20 mg/mL proteinase K (Roche #03115879001) all diluted in 1xTE buffer. RNA samples were subsequently quantified using Qubit RNA HS Assay Kit (Thermo Fisher Scientific #Q32852) and analyzed using a RNA 6000 Pico Kit (Agilent 5067-1513) in a 2100 Bioanalyzer (Agilent G2939A). RNA samples were either immediately used for RNA-Seq library preparation or stored long-term at −80° C.
RNA-Seq libraries were then produced from these samples using a slightly modified ScriptSeq v2 RNA-Seq Library Preparation Kit (Illumina 455A/22124) ensuring use of unique index primers through ScriptSeq Index PCR Primers (Sets 1-4) 48 rxns/set (Illumina #SSIP1234).

The next series concerns Pimelobacter simplex. The series can be described thus: Solvent and steroid exposure growth curves. The following applies: P. simplex, starting OD 0.005, constant solvent.
Text: as §7
In order to properly determine the doubling time of the strain, growth curves were performed. All growth curves were done in 100 μL per well volumes in 96 well flat clear bottom black polystyrene TC-treated microplates which were individually wrapped with a lid and sterile (Corning #3603). Measurements were done by an Infinite M200 Pro (TECAN) spectrophotometer at the temperature suited for P. simplex. Readings were performed over 96 cycles of 15 minutes each at 600 nm absorbance with 25 flashes in a 3×3 (XY-Line) type reads per well. In between reads there was orbital shaking at 150 rpm frequency for a total of 10 minutes. In order to characterize the growth alone, a ½ serial dilution of 9 concentrations from 0.5-0.0020 OD600 nm were prepared in the respective media. Then each concentration was measured as previously described using a microplate reader (TECAN) and normalized against a media background control in technical triplicate. Afterward, an appropriate starting concentration of cells was chosen with a substantially long lag-phase, linear log phase, and a plateau of stationary-phase.
Once an appropriate starting cell concentration was chosen, a secondary growth curve was performed to test the toxicity levels of the solvents used to dissolve steroids of interest. Since the steroids used are heavily hydrophobic, they often need to be dissolved in organic solvents such as DMSO or ethanol which are toxic to bacteria at high concentrations. P. simplex was incubated under microplate reader conditions previously mentioned at a starting OD determined by the first growth curve with DMSO, ethanol, or H2O at ½ serial dilutions for a total of eight concentrations (50-0.39%) tested in technical triplicate. Two controls were included per solvent; a positive control without solvent and a media control which allowed for appropriate normalization. Solvent exposure growth curves allowed for choosing the maximum amount of solvent concentration that strains would sustain while maintaining relative viability in order to determine a range of steroid concentrations which could be used.
A tertiary growth curve was performed to test the toxicity levels of steroid specific to P. simplex. The strain was incubated under microplate reader conditions previously mentioned at a starting OD determined by the first growth curve and the highest solvent concentration corresponding to the steroid of interest with steroid at ½ serial dilutions for a total of seven concentrations tested in singlet. Testosterone, progesterone, 17β-estradiol, hydrocortisone, and aldosterone were all dissolved in ethanol while estrone was dissolved in DMSO. Three controls were included for each steroid; a positive control with the highest tolerable solvent concentration (%), a positive control with media, and a media control which allowed for normalization. Steroid exposure growth curves allowed for choosing the maximum amount of steroid concentration that P. simplex would sustain while maintaining relative viability.

Read-outs that look alike come from different tables or passages of the source.

`Cc1c2c(c(O)c3c(O)cccc13)C(=O)[C@]1(O)C(=O)C(C(N)=O)=C(O)[C@@H](N(C)C)[C@@H]1C2` [aTc, anhydrotetracycline]: the “h (Hill coefficient)” value in series [1] (aTc, sensor 3) is 2.14 ± 0.185; in series [2] (aTc, sensor 1), 1.57 ± 0.0802; in series [3] (aTc, sensor 2), 2.37 ± 0.191. The EC50 was 133 ± 6.15 nM in series [1] (aTc, sensor 3, QD:TF:DNA 1:4:18, Table 6 fit, read-out: EC50); 117 nM in series [1] (sensor 3, legend of FIG. 4, read-out: c50 (analyte concentration that yields 50% signal, EC50)); 218 ± 9.18 nM in series [2] (aTc, sensor 1, tdTomato:TF:DNA 1:1:3, Table 6 fit, read-out: EC50); 205 nM in series [2] (sensor 1, legend of FIG. 4, read-out: c50 (analyte concentration that yields 50% signal, EC50)); 699 ± 26.4 nM in series [3] (aTc, sensor 2, QD:TF:DNA 1:4:18, Table 6 fit, read-out: EC50); 682 nM in series [3] (sensor 2, legend of FIG. 4, read-out: c50 (analyte concentration that yields 50% signal, EC50)).

As to `C[C@]12CC[C@@H]3c4ccc(O)cc4CC[C@H]3[C@@H]1CC[C@@H]2O` [17β-estradiol, 17β-Estradiol], on PinR, the “impact of concentration on the sensor binding/unbinding (Fa/Fd)” value is “no impact”. Also, the “upregulation of genes inside the SRGI” value in series [4] is on record as “not”. In addition, the “highest steroid concentration exhibiting normal growth profile” value with Pimelobacter simplex is 21.88 µM.
